20 compounds from patent US8637510B2, “Morpholinothiazoles as alpha 7 positive allosteric modulators” (Janssen Pharmaceutica NV, priority 2009, dated 2014) can be followed below.

The target of this assay is T1, human alpha 7-wt nAChR (Homo sapiens, UniProt P36544).
T1 construct: expressed in transfected cells
Description: Ca2+ flux imaging (FDSS) (Protocol B). As to conditions: for Emax: efficacy of 100 μM choline defined as 100% in the absence of a PAM, read-out: a7-PAM-G_[33]_Eff_Curve_FI % Efficacy; for EC50: potentiation of 100 μM choline, compounds 0.01 μM to 30 μM, read-out: a7-PAM-G_[33]_pEC50 pEC50 (converted). In kind it is cell-based. The method, then: Ca^2+ Flux Imaging (FDSS) (Protocol B)
• Hanks buffered saline solution (HBSS, Invitrogen, Belgium), supplemented with 10 mM HEPES (Invitrogen, Belgium), CaCl2 to a final concentration of 5 mM, 0.1% Bovine serum albumin (Sigma-Aldrich NV, Belgium). b) Calcium-Sensitive Dye—Fluo-4AM • Fluo-4AM (Molecular Probes, USA) was dissolved in DMSO containing 10% Pluronic acid (Molecular Probes, USA) to give a stock solution which was diluted in assay buffer supplemented with 5 mM probenicid (Sigma, Aldrich NV, Belgium) to give a final concentration of 2 μM. c) 384-Well Plates • Black-sided, transparent bottomed 384 well plates coated with poly-D-lysine, PDL pre-coated (Corning, Incorporated, USA) d) Calcium Flux Measurement • A Functional drug screening system (FDSS, Hamamatsu) was used to measure intracellular free-calcium flux signals. Method
Monolayers of human alpha 7-wt nAChR-expressing cells were grown in black-sided, transparent bottomed 384 well plates coated with PDL for 24 hours prior to loading with a fluorescent calcium indicator, fluo-4AM for up to 120 minutes.
PAM activity was detected in real time by applying the compounds to be tested to the loaded cells along with an alpha 7 nicotinic receptor agonist during constant monitoring of cellular fluorescence in a FDSS. Compounds giving peak fluorescent responses greater than the response due to agonist alone, were considered to be alpha 7 nAChR PAMs. The alpha 7 nicotinic receptor agonist was choline, applied at a sub-maximal concentration of 100 μM. In a further setting of the present invention the compounds were applied prior to the alpha 7 nicotinic receptor agonist, in a particular 10 minutes prior to the agonist.
A control response to choline was calculated on each plate from the difference in peak in fluorescence in wells receiving either choline or assay buffer alone. Compounds of the present invention were tested at a concentration range from 0.01 μM to 30 μM. Compounds were considered to have an interesting activity when they potentiated the choline signal at least with 200% when tested at a concentration of 30 μM (the efficacy of 100 μM choline was defined as 100% in the absence of a PAM). An EC50 (or pEC50) was determined as a concentration relating to half the maximal effect, when a clear sigmoidal curve with top plateau was obtained.
(A change in cytosolic calcium serves as a functional read-out for many receptors and channels.)

T1 sequence (P36544 23-502): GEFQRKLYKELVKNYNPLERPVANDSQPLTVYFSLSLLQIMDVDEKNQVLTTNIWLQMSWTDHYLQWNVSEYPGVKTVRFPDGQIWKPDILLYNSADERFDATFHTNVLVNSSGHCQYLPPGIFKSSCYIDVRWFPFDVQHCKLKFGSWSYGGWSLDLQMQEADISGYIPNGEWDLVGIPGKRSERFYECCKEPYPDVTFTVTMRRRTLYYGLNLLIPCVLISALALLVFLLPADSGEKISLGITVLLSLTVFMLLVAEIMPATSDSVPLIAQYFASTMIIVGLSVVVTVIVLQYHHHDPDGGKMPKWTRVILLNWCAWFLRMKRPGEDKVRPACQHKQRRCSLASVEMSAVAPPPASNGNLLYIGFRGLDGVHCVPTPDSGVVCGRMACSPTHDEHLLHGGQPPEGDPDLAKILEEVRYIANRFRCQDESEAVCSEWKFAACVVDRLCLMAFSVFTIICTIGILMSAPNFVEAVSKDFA

On to `Cc1cc(-c2sc(N3CCOCC3)nc2CNC(=O)c2conc2C)cc(C)n1` [Compound 62, N-[[5-(2,6-dimethyl-4-pyridinyl)-2-(4-morpholinyl)-4-thiazolyl]methyl]-3-methyl-4-isoxazolecarboxamide], for which the Emax was determined as 633% and the EC50 is 4270 nM.
In the same order, the values of `Cc1cc(-c2sc(N3C[C@@H](C)O[C@@H](C)C3)nc2CNC(=O)c2conc2C)ccn1` [Compound 86, N-[[2-[(2R,6S)-2,6-dimethyl-4-morpholinyl]-5-(2-methyl-4-pyridinyl)-4-thiazolyl]methyl]-3-methyl-4-isoxazolecarboxamide] are 479% and 759 nM.
In the same order, the values of `Cc1cc(-c2sc(N3C[C@@H](C)O[C@@H](C)C3)nc2CNC(=O)c2cccc(Cl)c2)ccn1` [Compound 91, 3-chloro-N-[[2-[(2R,6S)-2,6-dimethyl-4-morpholinyl]-5-(2-methyl-4-pyridinyl)-4-thiazolyl]methyl]-benzamide] are 445% and 407 nM.
As for `Cc1cc(-c2sc(N3C[C@@H](C)O[C@@H](C)C3)nc2CNC(=O)c2ccccc2F)ccn1` [Compound 92, N-[[2-[(2R,6S)-2,6-dimethyl-4-morpholinyl]-5-(2-methyl-4-pyridinyl)-4-thiazolyl]methyl]-2-fluoro-benzamide], the Emax is 523% and the EC50 is 661 nM.
In the same order, the values of `Cc1cc(-c2sc(N3C[C@@H](C)O[C@@H](C)C3)nc2CNC(=O)C2CCC2)c(C)cn1` [Compound 95, N-[[2-[(2R,6S)-2,6-dimethyl-4-morpholinyl]-5-(2,5-dimethyl-4-pyridinyl)-4-thiazolyl]methyl]-cyclobutanecarboxamide] are 299% and 2090 nM.
For the compound `Cc1nocc1C(=O)NCc1nc(N2C[C@@H](C)O[C@@H](C)C2)sc1-c1ccncc1` [Compound 101, N-[[2-[(2R,6S)-2,6-dimethyl-4-morpholinyl]-5-(4-pyridinyl)-4-thiazolyl]methyl]-3-methyl-4-isoxazolecarboxamide], the EC50 was 6610 nM.
For the compound `Cc1cc(-c2sc(N3C[C@@H](C)O[C@@H](C)C3)nc2CNC(=O)CC2CC2)cc(C2CC2)n1` [Compound 104, N-[[5-(2-cyclopropy1-6-methyl-4-pyridinyl)-2-[(2R,6S)-2,6-dimethyl-4-morpholinyl]-4-thiazolyl]methyl]-cyclopropaneacetamide], the Emax was found to be 923% and the EC50 was 61.7 nM.
In the same order, the values of `Cc1cc(-c2sc(N3C[C@@H](C)O[C@@H](C)C3)nc2CNC(=O)c2cc(C)on2)cc(C2CC2)n1` [Compound 105, N-[[5-(2-cyclopropy1-6-methyl-4-pyridinyl)-2-[(2R,6S)-2,6-dimethyl-4-morpholinyl]-4-thiazolyl]methyl]-5-methyl-3-isoxazolecarboxamide] are 895% and 288 nM.
In the same order, the values of `Cc1cc(-c2sc(N3C[C@@H](C)O[C@@H](C)C3)nc2CNC(=O)c2conc2C)cc(C2CC2)n1` [Compound 106, N-[[5-(2-cyclopropy1-6-methyl-4-pyridinyl)-2-[(2R,6S)-2,6-dimethyl-4-morpholinyl]-4-thiazolyl]methyl]-3-methyl-4-isoxazolecarboxamide] are 650% and 81.3 nM.
In the same order, the values of `Cc1cc(-c2sc(N3C[C@@H](C)O[C@@H](C)C3)nc2CNC(=O)c2ccc(F)cc2C)cc(C2CC2)n1` [Compound 107, N-[[5-(2-cyclopropy1-6-methyl-4-pyridinyl)-2-[(2R,6S)-2,6-dimethyl-4-morpholinyl]-4-thiazolyl]methyl]-4-fluoro-2-methyl-benzamide] are 780% and 26.9 nM.
For the compound `Cc1cc(-c2sc(N3C[C@@H](C)O[C@@H](C)C3)nc2CNC(=O)C(C)C)cc(C2CC2)n1` [Compound 108, N-[[5-(2-cyclopropy1-6-methyl-4-pyridinyl)-2-[(2R,6S)-2,6-dimethyl-4-morpholinyl]-4-thiazolyl]methyl]-2-methyl-propanamide], the Emax amounted to 764% and the EC50 is 72.4 nM.
Taken in the same sequence, the figures for `Cc1cc(-c2sc(N3C[C@@H](C)O[C@@H](C)C3)nc2CNC(=O)C2CC2)cc(C2CC2)n1` [Compound 109, N-[[5-(2-cyclopropy1-6-methyl-4-pyridinyl)-2-[(2R,6S)-2,6-dimethyl-4-morpholinyl]-4-thiazolyl]methyl]-cyclopropanecarboxamide] were 826% and 224 nM.
In the same order, the values of `Cc1cc(-c2sc(N3C[C@@H](C)O[C@@H](C)C3)nc2CNC(=O)CC(C)C)cc(C2CC2)n1` [Compound 110, N-[[5-(2-cyclopropy1-6-methyl-4-pyridinyl)-2-[(2R,6S)-2,6-dimethyl-4-morpholinyl]-4-thiazolyl]methyl]-3-methyl-butanamide] are 957% and 12.3 nM.
In the same order, the values of `CC(C)C(=O)NCc1nc(N2CCOCC2)sc1-c1ccncc1` [Compound 115, 2-methyl-N-[[2-(4-morpholinyl)-5-(4-pyridinyl)-4-thiazolyl]methyl]-propanamide] are 230% and 9330 nM.
Turning to `Cc1ccc(-c2sc(N3C[C@@H](C)O[C@@H](C)C3)nc2CNC(=O)c2ccccc2F)cn1` [Compound 124, N-[[2-[(2R,6S)-2,6-dimethyl-4-morpholinyl]-5-(6-methyl-3-pyridinyl)-4-thiazolyl]methyl]-2-fluoro-benzamide], the Emax is 356%.
`Cc1cc(-c2sc(N3C[C@@H](C)O[C@@H](C)C3)nc2CNC(=O)c2cc(C3CC3)on2)cc(C)n1` [Compound 127, 5-cyclopropyl-N-[[2-[(2R,6S)-2,6-dimethyl-4-morpholinyl]-5-(2,6-dimethyl-4-pyridinyl)-4-thiazolyl]methyl]-3-isoxazolecarboxamide]: the EC50 was 692 nM.
Same read-out and setting: the value for `Cc1cc(-c2sc(N3C[C@@H](C)O[C@@H](C)C3)nc2CNC(=O)CCC(F)(F)F)cc(C)n1` [Compound 128, N-[[2-[(2R,6S)-2,6-dimethyl-4-morpholinyl]-5-(2,6-dimethyl-4-pyridinyl)-4-thiazolyl]methyl]-4,4,4-trifluoro-butanamide] was 51.3 nM; that for `Cc1cc(-c2sc(N3C[C@@H](C)O[C@@H](C)C3)nc2CNC(=O)c2cc(C)nn2C(C)(C)C)cc(C)n1` [Compound 129, 1-(1,1-dimethylethyl)-N-[[2-[(2R,6S)-2,6-dimethyl-4-morpholinyl]-5-(2,6-dimethyl-4-pyridinyl)-4-thiazolyl]methyl]-3-methyl-1H-pyrazole-5-carboxamide] was 912 nM.
Same read-out and setting: the value for `Cc1cc(-c2sc(N3C[C@@H](C)O[C@@H](C)C3)nc2CNC(=O)c2noc3ccccc23)cc(C)n1` [Compound 130, N-[[2-[(2R,6S)-2,6-dimethyl-4-morpholinyl]-5-(2,6-dimethyl-4-pyridinyl)-4-thiazolyl]methyl]-1,2-benzisoxazole-3-carboxamide] was 309 nM.
As to `Cc1cc(-c2sc(N3C[C@@H](C)O[C@@H](C)C3)nc2CNC(=O)c2cc(C)n(C)n2)cc(C)n1` [Compound 131, N-[[2-[(2R,6S)-2,6-dimethyl-4-morpholinyl]-5-(2,6-dimethyl-4-pyridinyl)-4-thiazolyl]methyl]-1,5-dimethyl-1H-pyrazole-3-carboxamide], the Emax was 462%.
